Results from US12202843B2, “Muscarinic receptor agonists” (Nxera Pharma UK Limited, priority 2014, dated 2025).

Columns and labels:
[1] = molecular target: T1, human muscarinic M3 receptor (Homo sapiens, UniProt P20309); experiment: Alphascreen Surefire phospho-ERK1/2 functional assay, M3; format: cell-based; conditions: for % Emax cf. ACh, M3: CHO cells stably expressing human M3, relative to ACh; for EC50: CHO cells stably expressing human M3, read-out: pEC50 M3 (converted); for Emax: CHO, read-out: % Emax cf. ACh, M3, CHO cells stably expressing human M3, relative to ACh
T1 construct: expressed in transfected cells

[2] = molecular target: T2, human muscarinic M4 receptor (Homo sapiens, UniProt P08173); experiment: Alphascreen Surefire phospho-ERK1/2 functional assay, M4; format: cell-based; conditions: for % Emax cf. ACh, M4: CHO cells stably expressing human M4, relative to ACh; for EC50: CHO cells stably expressing human M4, read-out: pEC50 M4 (converted); for Emax: CHO, read-out: % Emax cf. ACh, M4, CHO cells stably expressing human M4, relative to ACh
T2 construct: expressed in transfected cells
T2 sequence (P08173 1-479): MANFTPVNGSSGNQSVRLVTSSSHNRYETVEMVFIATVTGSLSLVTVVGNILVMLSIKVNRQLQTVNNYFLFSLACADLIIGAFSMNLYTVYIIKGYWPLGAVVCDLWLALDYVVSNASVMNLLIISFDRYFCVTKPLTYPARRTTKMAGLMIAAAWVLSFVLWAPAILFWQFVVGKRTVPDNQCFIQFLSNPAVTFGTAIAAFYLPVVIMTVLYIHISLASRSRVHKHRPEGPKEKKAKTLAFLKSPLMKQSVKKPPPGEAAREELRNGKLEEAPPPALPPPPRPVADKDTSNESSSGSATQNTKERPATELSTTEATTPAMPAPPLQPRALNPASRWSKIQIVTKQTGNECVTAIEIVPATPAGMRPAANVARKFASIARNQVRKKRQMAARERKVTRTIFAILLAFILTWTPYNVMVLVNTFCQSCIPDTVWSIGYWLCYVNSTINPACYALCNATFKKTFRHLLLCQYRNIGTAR

[3] = tested on: scopolamine-induced amnesia; experiment: Passive avoidance, scopolamine-induced amnesia; format: in vivo; conditions: 90 minutes prior to training
Method: Studies were carried out as described previously by Foley et al., (2004) Neuropsychopharmacology. In the passive avoidance task scopolamine administration (1 mg/kg, i.p.) at 6 hours following training rendered animals amnesic of the paradigm. A dose range of 3, 10, and 30 mg/kg (po) free base, administered 90 minutes prior to the training period via oral gavage, was examined.

[4] = molecular target: T3, human muscarinic M2 receptor (Homo sapiens, UniProt P08172); experiment: Alphascreen Surefire phospho-ERK1/2 functional assay, M2; format: cell-based; conditions: for % Emax cf. ACh, M2: CHO cells stably expressing human M2, relative to ACh; for EC50: CHO cells stably expressing human M2, read-out: pEC50 M2 (converted); for Emax: CHO, read-out: % Emax cf. ACh, M2, CHO cells stably expressing human M2, relative to ACh
T3 sequence (P08172 1-466): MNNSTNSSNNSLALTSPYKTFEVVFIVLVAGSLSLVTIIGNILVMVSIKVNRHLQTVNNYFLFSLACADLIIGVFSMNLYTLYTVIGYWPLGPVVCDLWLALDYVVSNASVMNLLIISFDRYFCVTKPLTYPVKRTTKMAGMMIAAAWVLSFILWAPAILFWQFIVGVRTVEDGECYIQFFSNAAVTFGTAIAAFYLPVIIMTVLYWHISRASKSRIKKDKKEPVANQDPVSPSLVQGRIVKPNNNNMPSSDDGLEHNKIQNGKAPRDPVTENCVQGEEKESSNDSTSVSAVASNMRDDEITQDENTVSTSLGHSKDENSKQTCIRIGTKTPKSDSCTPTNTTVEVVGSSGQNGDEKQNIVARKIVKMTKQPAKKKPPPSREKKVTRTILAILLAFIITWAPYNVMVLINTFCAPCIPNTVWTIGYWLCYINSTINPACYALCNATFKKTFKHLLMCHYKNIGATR

[5] = molecular target: T4, human muscarinic M1 receptor (Homo sapiens, UniProt P11229); experiment: Alphascreen Surefire phospho-ERK1/2 functional assay, M1; format: cell-based; conditions: for EC50: CHO cells stably expressing human M1, read-out: pEC50 M1 (converted); for % Emax cf. ACh, M1: CHO cells stably expressing human M1, relative to ACh; for Emax: CHO, read-out: % Emax cf. ACh, M1, CHO cells stably expressing human M1, relative to ACh
T4 sequence (P11229 1-460): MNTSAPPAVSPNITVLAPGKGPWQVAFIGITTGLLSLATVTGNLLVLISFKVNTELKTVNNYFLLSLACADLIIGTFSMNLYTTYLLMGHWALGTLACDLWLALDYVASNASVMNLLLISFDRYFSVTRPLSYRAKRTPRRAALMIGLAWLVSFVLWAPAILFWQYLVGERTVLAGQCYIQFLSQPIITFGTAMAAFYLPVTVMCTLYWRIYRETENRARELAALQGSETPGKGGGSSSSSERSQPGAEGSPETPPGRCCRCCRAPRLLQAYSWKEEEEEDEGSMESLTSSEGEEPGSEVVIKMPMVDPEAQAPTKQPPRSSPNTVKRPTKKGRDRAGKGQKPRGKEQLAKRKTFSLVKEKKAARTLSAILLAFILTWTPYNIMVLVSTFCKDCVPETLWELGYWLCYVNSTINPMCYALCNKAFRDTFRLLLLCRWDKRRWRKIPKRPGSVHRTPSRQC

T1 sequence (P20309 whole entry): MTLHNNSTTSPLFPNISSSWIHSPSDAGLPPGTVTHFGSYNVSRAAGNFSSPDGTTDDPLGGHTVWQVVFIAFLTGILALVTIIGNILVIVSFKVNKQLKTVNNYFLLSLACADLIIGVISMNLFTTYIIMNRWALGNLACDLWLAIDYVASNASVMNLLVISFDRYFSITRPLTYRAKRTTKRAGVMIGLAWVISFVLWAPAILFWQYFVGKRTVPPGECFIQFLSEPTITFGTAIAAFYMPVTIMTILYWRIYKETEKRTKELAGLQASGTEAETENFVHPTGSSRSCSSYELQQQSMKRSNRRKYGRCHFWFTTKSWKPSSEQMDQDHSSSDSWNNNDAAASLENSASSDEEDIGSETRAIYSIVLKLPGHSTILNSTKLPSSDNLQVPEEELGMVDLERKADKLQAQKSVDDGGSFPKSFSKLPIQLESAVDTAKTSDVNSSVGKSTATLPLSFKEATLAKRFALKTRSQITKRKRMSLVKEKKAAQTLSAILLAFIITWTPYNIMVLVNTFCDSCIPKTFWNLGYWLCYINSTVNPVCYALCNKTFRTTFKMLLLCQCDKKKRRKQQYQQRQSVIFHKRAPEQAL

SMILES	EC50 [1] [nM]	Emax [1] [%]	EC50 [2] [nM]	EC50 [4] [nM]	Emax [4] [%]	EC50 [5] [nM]	Emax [2] [%]	Emax [5] [%]	further results
CCOC(=O)N1C2CCC1CC(N1CCC3(CC1)CNC(=O)C3)C2 (single isomer, unassigned) [Example 2-2 Isomer 1, ethyl 3-(3-oxo-2,8-diazaspiro[4.5]dec-8-yl)-8-azabicyclo[3.2.1]octane-8-carboxylate]	–	–	–	–	–	–	–	–	% Emax cf. ACh, M3 ([1]; listed as 2-2 Isomer 1): 17%; % Emax cf. ACh, M4 ([2]; listed as 2-2 Isomer 1): 53%; reversal of scopolamine-induced amnesia in passive avoidance ([3]; 3, 10 and 30 mg/kg po free base, scopolamine 1 mg/kg i.p.): reverse scopolamine-induced amnesia of the paradigm in a dose-dependent manner; ED50 ([3]; po, scopolamine 1 mg/kg i.p. 6 hours following training, read-out: approximate ED50, reversal of scopolamine-induced amnesia): ~10 mg/kg; % Emax cf. ACh, M2 [4]: 0%
CCOC(=O)N1C2CCCC1CC(N1CCC3(CC1)CNC(=O)C3)C2 (single isomer, unassigned) [Example 5-1 Isomer 1, ethyl 3-(3-oxo-2,8-diazaspiro[4.5]dec-8-yl)-9-azabicyclo[3.3.1]nonane-9-carboxylate]	> 20000	8	251	7940	17	316	–	–	% Emax cf. ACh, M4 ([2]; listed as 5-1 Isomer 1): 25%; % Emax cf. ACh, M1 ([5]; listed as 5-1 Isomer 1): 131%
CC#CCOC(=O)N1[C@@H]2CCC[C@H]1CC(N1CCC3(CC1)CNC(=O)C3)C2 (mixture of isomers) [Example 5-3]	6310	19	31.6	> 20000	7	31.6	37	80	–
[2H]C([2H])([2H])C([2H])([2H])OC(=O)N1C2CCC1CC(N1CCC3(CC1)CNC(=O)C3)C2 (single isomer, unassigned) [Example 2-32 Isomer 1]	> 20000	–	126	> 20000	16	79.4	40	92	% Emax cf. ACh, M3 ([1]; listed as 2-32 Isomer 1): 10%
CC#CCOC(=O)N1C2CCC1CC(N1CCC3(CC1)CNC(=O)C3)C2 (single isomer, unassigned) [Example 2-5 Isomer 1]	> 20000	7	25.1	158	39	25.1	87	98	–
O=C1CC2(CCN(C3CC4CCC(C3)N4C(=O)OCCF)CC2)CN1 (single isomer, unassigned) [Example 2-3 Isomer 2]	> 20000	0	> 20000	> 20000	4	79.4	–	–	% Emax cf. ACh, M4 ([2]; listed as 2-3 Isomer 2): 16%; % Emax cf. ACh, M1 ([5]; listed as 2-3 Isomer 2): 49%
CCOC(=O)N1C2CCCC1CC(N1CCC3(CC1)CNC(=O)O3)C2 (single isomer, unassigned) [Example 5-4 Isomer 2]	> 20000	0	–	> 20000	2	158	–	–	% Emax cf. ACh, M4 ([2]; listed as 5-4 Isomer 2): 8%; % Emax cf. ACh, M1 [5]: 72%
CCOC(=O)N1C2CCC1CC(N1CCCC3(CC1)CNC(=O)C3)C2 (single isomer, unassigned) [Example 9-1 Isomer 2, ethyl 3-(3-oxo-2,8-diazaspiro[4.6]undec-8-yl)-8-azabicyclo[3.2.1]octane-8-carboxylate]	> 20000	22	2.51	> 20000	12	3.98	60	103	–
C#CCOC(=O)N1C2CCC1CC(N1CCC3(CC1)CNC(=O)C3)C2 (single isomer, unassigned) [Example 2-4 Isomer 1]	> 20000	–	126	> 20000	–	100	64	92	% Emax cf. ACh, M3 ([1]; listed as 2-4 Isomer 1): 7%; % Emax cf. ACh, M2 ([4]; listed as 2-4 Isomer 1): 27%
